Measurements reported in article PMC11946580, “In Vitro Enzymatic and Computational Assessments of Pyrazole–Isatin and Pyrazole–Indole Conjugates as Anti-Diabetic, Anti-Arthritic, and Anti-Inflammatory Agents” (Pharmaceutics, 2025).

Key:
5-LOX = biological target: T1, 5-LOX (Homo sapiens, UniProt P09917); experiment: 5-Lipoxygenase inhibition assay (kit); details: for 5-LOX Inhibition (%): mean ± SE, three replicates; for 5-LOX Inhibition (%): test concentration or dose not given here
T1 sequence (P09917 1-674): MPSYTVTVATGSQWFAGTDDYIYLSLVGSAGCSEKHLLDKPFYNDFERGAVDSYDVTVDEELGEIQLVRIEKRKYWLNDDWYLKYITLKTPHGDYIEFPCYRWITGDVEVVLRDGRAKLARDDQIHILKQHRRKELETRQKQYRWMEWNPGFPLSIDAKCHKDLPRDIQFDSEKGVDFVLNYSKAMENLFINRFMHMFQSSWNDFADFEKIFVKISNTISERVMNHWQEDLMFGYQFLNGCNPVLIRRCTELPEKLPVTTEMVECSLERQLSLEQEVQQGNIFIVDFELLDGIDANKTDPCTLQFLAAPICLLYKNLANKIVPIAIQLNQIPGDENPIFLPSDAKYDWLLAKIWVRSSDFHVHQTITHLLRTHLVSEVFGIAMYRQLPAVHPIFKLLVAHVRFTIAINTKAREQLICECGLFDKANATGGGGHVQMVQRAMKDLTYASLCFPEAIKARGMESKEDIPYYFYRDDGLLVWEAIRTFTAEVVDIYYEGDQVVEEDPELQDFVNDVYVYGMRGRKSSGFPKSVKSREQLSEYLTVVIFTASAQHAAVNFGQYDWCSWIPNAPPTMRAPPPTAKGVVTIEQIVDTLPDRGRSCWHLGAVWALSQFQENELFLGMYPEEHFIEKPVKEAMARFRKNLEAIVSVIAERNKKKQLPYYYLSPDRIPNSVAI

COX-2 = biological target: T2, COX-2 (Homo sapiens, UniProt P35354); experiment: COX-2 inhibition assay (Cayman kit); format: biochemical; details: mean ± SE, three replicates
T2 construct: purchased Cayman 560131
T2 sequence (P35354 18-604): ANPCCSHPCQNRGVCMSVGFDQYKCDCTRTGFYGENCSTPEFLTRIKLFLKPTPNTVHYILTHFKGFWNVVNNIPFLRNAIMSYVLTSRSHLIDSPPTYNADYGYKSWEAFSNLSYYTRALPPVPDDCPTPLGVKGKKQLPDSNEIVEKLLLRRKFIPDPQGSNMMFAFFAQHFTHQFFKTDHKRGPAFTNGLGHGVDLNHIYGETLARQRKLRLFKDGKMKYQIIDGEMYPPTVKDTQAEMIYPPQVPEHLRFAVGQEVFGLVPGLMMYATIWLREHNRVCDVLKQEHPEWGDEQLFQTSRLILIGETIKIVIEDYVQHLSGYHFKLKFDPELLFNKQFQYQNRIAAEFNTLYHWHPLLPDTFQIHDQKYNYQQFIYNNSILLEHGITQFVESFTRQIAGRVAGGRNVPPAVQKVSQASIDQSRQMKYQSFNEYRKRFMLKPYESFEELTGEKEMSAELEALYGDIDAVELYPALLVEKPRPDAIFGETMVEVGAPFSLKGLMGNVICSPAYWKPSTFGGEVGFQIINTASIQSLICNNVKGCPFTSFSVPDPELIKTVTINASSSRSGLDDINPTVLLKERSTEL

COX-1 = biological target: T3, COX-1 (Ovis aries, UniProt P05979); experiment: COX-1 inhibition assay (Cayman kit); details: for COX-1 Inhibition (%): mean ± SE, three replicates; for COX-1 Inhibition (%): test concentration or dose not given here
T3 sequence (P05979 25-600): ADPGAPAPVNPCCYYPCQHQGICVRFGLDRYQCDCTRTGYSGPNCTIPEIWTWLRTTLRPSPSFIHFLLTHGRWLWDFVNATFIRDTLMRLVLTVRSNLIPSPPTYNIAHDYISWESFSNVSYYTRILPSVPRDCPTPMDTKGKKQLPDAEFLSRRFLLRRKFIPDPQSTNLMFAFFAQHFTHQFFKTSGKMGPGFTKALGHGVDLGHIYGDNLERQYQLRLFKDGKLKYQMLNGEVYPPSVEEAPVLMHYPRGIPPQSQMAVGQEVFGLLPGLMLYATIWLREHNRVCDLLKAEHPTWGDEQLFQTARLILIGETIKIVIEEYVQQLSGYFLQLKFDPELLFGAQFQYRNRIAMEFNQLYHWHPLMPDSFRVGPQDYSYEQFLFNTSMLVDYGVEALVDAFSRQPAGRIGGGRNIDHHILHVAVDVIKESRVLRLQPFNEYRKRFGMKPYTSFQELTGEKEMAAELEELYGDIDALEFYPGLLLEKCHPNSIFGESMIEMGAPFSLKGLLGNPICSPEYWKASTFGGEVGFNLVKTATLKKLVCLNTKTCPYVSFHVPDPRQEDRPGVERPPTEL

[1] = biological target: bovine serum albumin (BSA) (Bos taurus, UniProt P02769); details: mean ± SE, three replicates; note: test concentration or dose not given here
α-glucosidase = α-glucosidase (Saccharomyces cerevisiae, UniProt P53341); experiment: α-glucosidase inhibition assay (pNPG); format: biochemical; details: mean ± SE, three replicates
Description: In vitro enzymatic assessments
The mixture was then left at
The absorbance was measured
the enzymatic activity. […] The IC50

α-glucosidase enzyme = biological target: α-glucosidase enzyme; design: method as in PMID 38225280; details: cited from earlier work
[2] = biological target: cyclooxygenase-2 (COX-2) enzyme; design: method as in PMID 37985602; details: cited from earlier work
[3] = biological target: cyclooxygenase-1 (COX-1) enzyme; design: method as in PMID 37985602; details: cited from earlier work
[4] = tested on: pancreatic cancer (PaCa-2) cells; design: method as in PMID 39193301; details: cited from earlier work
α-amylase enzyme = biological target: α-amylase enzyme; design: method as in PMID 34600331; details: cited from earlier work
[5] = design: method as in doi:10.1007/s11164-024-05318-1; details: read-out: antioxidant activities IC50; cited from earlier work
[6] = design: method as in PMID 39143406; details: cited from earlier work
COX-2 enzyme = biological target: COX-2 enzyme; design: method as in PMID 39143406; details: cited from earlier work
diabetic mice = tested on: diabetic mice; design: method as in PMID 38029465; details: cited from earlier work

Chain of bovine serum albumin (BSA) (P02769 25-607): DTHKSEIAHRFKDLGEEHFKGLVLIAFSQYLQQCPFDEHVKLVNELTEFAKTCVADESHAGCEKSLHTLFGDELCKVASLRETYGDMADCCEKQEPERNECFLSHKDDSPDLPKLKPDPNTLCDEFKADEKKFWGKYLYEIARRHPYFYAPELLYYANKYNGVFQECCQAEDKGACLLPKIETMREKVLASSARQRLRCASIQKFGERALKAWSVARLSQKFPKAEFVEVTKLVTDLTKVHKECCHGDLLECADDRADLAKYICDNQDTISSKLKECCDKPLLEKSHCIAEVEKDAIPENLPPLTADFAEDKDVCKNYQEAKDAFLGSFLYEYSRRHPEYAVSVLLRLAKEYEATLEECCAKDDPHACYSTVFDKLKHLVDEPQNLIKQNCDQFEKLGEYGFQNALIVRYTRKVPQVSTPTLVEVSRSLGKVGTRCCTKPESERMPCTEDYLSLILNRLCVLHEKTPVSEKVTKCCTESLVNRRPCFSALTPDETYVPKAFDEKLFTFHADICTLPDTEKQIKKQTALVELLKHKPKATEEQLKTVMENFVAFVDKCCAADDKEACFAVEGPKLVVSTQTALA
Chain of α-glucosidase (P53341 whole entry): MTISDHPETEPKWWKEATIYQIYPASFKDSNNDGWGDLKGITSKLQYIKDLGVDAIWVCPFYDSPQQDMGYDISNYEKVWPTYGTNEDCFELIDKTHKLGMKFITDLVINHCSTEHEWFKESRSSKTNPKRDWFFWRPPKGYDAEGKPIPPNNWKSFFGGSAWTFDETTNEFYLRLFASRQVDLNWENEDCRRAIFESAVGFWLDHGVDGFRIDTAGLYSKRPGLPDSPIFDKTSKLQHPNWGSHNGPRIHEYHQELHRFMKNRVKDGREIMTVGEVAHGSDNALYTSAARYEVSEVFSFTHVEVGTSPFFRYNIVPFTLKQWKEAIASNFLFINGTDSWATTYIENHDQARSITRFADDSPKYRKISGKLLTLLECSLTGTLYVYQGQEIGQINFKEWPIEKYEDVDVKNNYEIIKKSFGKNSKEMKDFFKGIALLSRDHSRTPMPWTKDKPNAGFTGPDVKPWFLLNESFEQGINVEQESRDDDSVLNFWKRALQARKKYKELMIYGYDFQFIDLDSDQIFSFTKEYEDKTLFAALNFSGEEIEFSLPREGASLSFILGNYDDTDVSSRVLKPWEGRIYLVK

| Structure (SMILES) | IC50 (5-LOX) [µM] | 5-LOX Inhibition (%) (5-LOX) | COX-2 Inhibition (%) (COX-2) | IC50 (COX-2) [µM] | IC50 (COX-1) [µM] | COX-1 Inhibition (%) (COX-1) | Protein Denaturation Inhibition (%) [1] [%] | other results |
| --- | --- | --- | --- | --- | --- | --- | --- | --- |
| CN1C(=O)C(=Nc2[nH]nc(Nc3ccccc3)c2C(=O)Nc2ccccc2)c2ccccc21 [12a] | 49.9 | 9.57 ± 0.04 | 19.72 ± 0.04 | 45 | 49.8 | 17.47 ± 0.04 | 14.40 ± 0.03 |  |
| Cc1ccc(NC(=O)c2c(Nc3ccccc3)n[nH]c2N=C2C(=O)N(C)c3ccccc32)cc1 [12b] | 45.7 | 10.85 ± 0.04 | 21.00 ± 0.04 | 40.9 | 44.9 | 18.75 ± 0.04 | 15.25 ± 0.03 |  |
| COc1ccc(Nc2n[nH]c(N=C3C(=O)N(C)c4ccccc43)c2C(=O)Nc2ccccc2)cc1 [12c] | 40.4 | 13.08 ± 0.04 | 23.23 ± 0.04 | 35.8 | 38.8 | 20.98 ± 0.04 | 16.73 ± 0.03 |  |
| COc1ccc(Nc2n[nH]c(N=C3C(=O)N(C)c4ccccc43)c2C(=O)Nc2ccc(C)cc2)cc1 [12d] | 39.4 | 12.90 ± 0.04 | 23.05 ± 0.04 | 35 | 38 | 20.80 ± 0.04 | 16.62 ± 0.03 |  |
| CCN1C(=O)C(=Nc2[nH]nc(Nc3ccccc3)c2C(=O)Nc2ccccc2)c2ccccc21 [12e] | 48 | 9.72 ± 0.04 | 19.87 ± 0.04 | 43.3 | 47.8 | 17.62 ± 0.04 | 14.50 ± 0.03 |  |
| CCN1C(=O)/C(=N\c2[nH]nc(Nc3ccccc3)c2C(=O)Nc2ccc(C)cc2)c2ccccc21 [12f] | 44 | 11.01 ± 0.04 | 21.16 ± 0.04 | 39.4 | 43.2 | 18.91 ± 0.04 | 15.36 ± 0.03 |  |
| CCN1C(=O)C(=Nc2[nH]nc(Nc3ccc(OC)cc3)c2C(=O)Nc2ccccc2)c2ccccc21 [12g] | 38.9 | 13.25 ± 0.04 | 23.40 ± 0.04 | 34.4 | 37.4 | 21.15 ± 0.04 | 16.85 ± 0.03 |  |
| CCN1C(=O)C(=Nc2[nH]nc(Nc3ccc(OC)cc3)c2C(=O)Nc2ccc(C)cc2)c2ccccc21 [12h] | 38.7 | 12.66 ± 0.04 | 22.81 ± 0.04 | 34.3 | 37.3 | 20.56 ± 0.04 | 16.45 ± 0.03 |  |
| O=C(Nc1ccccc1)c1c(Nc2ccccc2)n[nH]c1N=Cc1c[nH]c2ccccc12 [14a] | 21.9 | 44.89 ± 0.26 | 55.04 ± 0.26 | 16.7 | 17.1 | 52.79 ± 0.26 | 37.94 ± 0.17 |  |
| Cc1ccc(NC(=O)c2c(Nc3ccccc3)n[nH]c2N=Cc2c[nH]c3ccccc23)cc1 [14b] | 17.3 | 61.93 ± 0.26 | 72.08 ± 0.26 | 12.4 | 12.5 | 69.83 ± 0.26 | 49.30 ± 0.17 |  |
| COc1ccc(Nc2n[nH]c(N=Cc3c[nH]c4ccccc34)c2C(=O)Nc2ccccc2)cc1 [14c] | 27.8 | 27.17 ± 0.26 | 37.32 ± 0.26 | 23 | 24 | 35.07 ± 0.26 | 26.13 ± 0.17 |  |
| COc1ccc(Nc2n[nH]c(N=Cc3c[nH]c4ccccc34)c2C(=O)Nc2ccc(C)cc2)cc1 [14d] | 26.7 | 27.73 ± 0.26 | 37.88 ± 0.26 | 22 | 22.9 | 35.63 ± 0.26 | 26.50 ± 0.17 |  |
| C[C@H]1O[C@H](O[C@H]2[C@H](O)[C@@H](O)[C@@H](O[C@H]3[C@H](O)[C@@H](O)C(O)O[C@@H]3CO)O[C@@H]2CO)[C@H](O)[C@@H](O)[C@@H]1N[C@H]1C=C(CO)[C@@H](O)[C@H](O)[C@H]1O (stereo partly shown) [Acarbose] |  |  |  |  |  |  |  | α-Glucosidase Inhibition (%) (α-glucosidase): 62.33 ± 0.16% |
| CC(c1cc2ccccc2s1)N(O)C(N)=O (stereo not shown) [Zileuton, reference compound] |  | 72.61 ± 0.07 |  |  |  |  |  |  |
| Cc1cc(-c2nnc(S)n2N)n[nH]1 [compound 1] |  |  |  |  |  |  |  | IC50 (α-glucosidase enzyme): 95.85 ± 0.92 µM |
| O=C(Nc1cc(-c2ccccc2)nn1-c1ccccc1)c1ccc(/C=C/C(=O)c2ccc(Cl)s2)cc1 [compound 2] |  |  |  |  |  |  |  | IC50 [2]: 1.76 µM; IC50 [3]: 10.2 µM |
| CCc1nn(-c2ccc([N+](=O)[O-])cc2)c(C)c1C(=O)/C=C/c1ccccc1 [compound 3] |  |  |  |  |  |  |  | PaCa-2 cells IC50 [4]: 13.0 µg/mL; cell cycle effect in treated PaCa-2 cells [4]: induces cell cycle arrest at the S and G2/M phases |
| CCC(=O)CN1C(=O)/C(=N/NC(=O)c2ccc(Br)cc2)c2ccccc21 [compound 4] |  |  |  |  |  |  |  | α-amylase IC50 (α-amylase enzyme): 19.6 µg/mL |
| COc1cc(C=NNC(=S)NN=C2C(=O)Nc3ccc(I)cc32)ccc1O [compound 5] |  |  |  |  |  |  |  | IC50 [5]: 9.76 ± 0.03 µM |
| Cc1ccc(NS(=O)(=O)c2ccc(-c3csc(N/N=C4\C(=O)Nc5ccc(Cl)cc54)n3)cc2)cc1 [compound 6] |  |  |  |  |  |  |  | edema inhibition (EI) [6]: 38.50%; IC50 (COX-2 enzyme): 8.26 µM; selectivity against COX-2 (SI) (COX-2 enzyme): 2.65 |
| Cc1ccc(/C=C2\SC(=O)N(CC(=O)NCCc3c[nH]c4ccccc34)C2=O)cc1 [compound 7] |  |  |  |  |  |  |  | glucose levels in diabetic mice (diabetic mice): suppressed glucose levels in diabetic mice |
